The conditions of series [1]: Crystal; DSC.
Series [2] can be described thus: Molar enthalpy of transition or fusion. The following applies: Crystal; DSC.
The nature of series [3]: refractive index (Na D-line) (dimensionless). To be noted: 293.15 K; 101.33 kPa; Liquid; Standard Abbe refractometry.

Numbers after ± are expanded uncertainties.

Regarding `O=C(O)c1ccccc1` [benzoic acid], the Triple point temperature in series [1] is 395.63 ± 1.2 K. Moreover, the “Molar enthalpy of transition or fusion” value in series [2] came out at 4.25 ± 0.43 kcal/mol. Broadly, the refractive index is the speed of light in vacuum divided by its phase velocity in the sample. With `CCCCO` [butan-1-ol], the refractive index in series [3] is 1.3989 ± 0.002. Still for that read-out and setting: then `CCC(C)=O` [butanone], with 1.3787 ± 0.002. In the case of `C1CCCCC1` [cyclohexane], the refractive index in series [3] stood at 1.4235 ± 0.002. Same read-out and setting: then `C[S+](C)[O-]` [dimethyl sulfoxide], with 1.4789 ± 0.002. Take `CN(C)C=O` [dimethylformamide]: the refractive index in series [3] is listed as 1.4309 ± 0.002. The same measure, in the same setting: the value for `CCO` [ethanol] was 1.361 ± 0.002. As for `Cc1nnc(C(C)C)n1[C@@H]1C[C@H]2CC[C@@H](C1)N2CC[C@H](NC(=O)C1CCC(F)(F)CC1)c1ccccc1` [maraviroc], the Triple point temperature in series [1] was 468.1 ± 1.2 K. Moreover, the “Molar enthalpy of transition or fusion” value in series [2] worked out at 8.7 ± 0.884 kcal/mol.

In the case of `CCCC(C)=O` [pentan-2-one], in series [3], the refractive index is on record as 1.3893 ± 0.002. On the same count and under the same terms, then `CCCO` [propan-1-ol], with 1.3854 ± 0.002. Consider `O=C(Nc1c(Cl)cncc1Cl)c1ccc(OC(F)F)c(OCC2CC2)c1` [roflumilast], for which the Triple point temperature in series [1] is on record as 432.4 ± 1.2 K. For the same compound, in series [2], the “Molar enthalpy of transition or fusion” value came to 9.04 ± 0.932 kcal/mol. On to `O` [water], for which, in series [3], the refractive index amounted to 1.3334 ± 0.002.

Source of the values: the NIST ThermoML archive (doi:10.1021/acs.jced.9b00710).
